Results taken from paper PMC11359702, “Synthesis and Biochemical Evaluation of Ethanoanthracenes and Related Compounds: Antiproliferative and Pro-Apoptotic Effects in Chronic Lymphocytic Leukemia (CLL)” (Pharmaceuticals, 2024).
Read-outs that look alike come from different tables or passages of the source.

Experiments:
[1] = system: HG-3 and PGA-1 cell lines; test: alamarBlue cell viability assay, mean of both CLL cell lines; format: cell-based, human; conditions: Homo sapiens, CLL cell; mean of HG-3 and PGA-1
[2] = system: HG-3 cells; test: alamarBlue cell viability assay; conditions: Homo sapiens, HG-3, 24 h; for IC50: read-out: HG-3 IC50; for viability at 10 µM: read-out: cell viability, HG-3, 10 µM, 24 h, vehicle = 100%; for viability at 1 µM: read-out: cell viability, HG-3, 1 µM, 24 h, vehicle = 100%
[3] = system: PGA-1 cells; test: alamarBlue cell viability assay; conditions: Homo sapiens, 24 h; for IC50: read-out: PGA-1 IC50; for viability at 10 µM: read-out: cell viability
[4] = HPLC stability study in phosphate buffers; format: physicochemical; conditions: for recovery at 24 h: over the pH range studied (pH 4, 7.4 and 9); for remaining at 24 h, 14.6 µg/mL / half-life at 14.6 µg/mL: phosphate buffer, 37 °C; for remaining at 24 h, 14.6 µg/mL: HPLC
Procedure: A preliminary stability study was carried out on selected chalcones, maleic anhydride and maleimide adducts at acidic, neutral and basic conditions (pH 4, 7.4 and 9) using HPLC to determine suitability for further preclinical investigations. […] A possible degradation route for the maleimide 23n could be through the hydrolysis of the cyclic imide of the maleimide ring, leading to the resultant amic acid product.
All samples were analyzed using acetonitrile–water (80:20%, 70:30%, 60:40% isocratic) as the mobile phase over 10 min and a flow rate of 1 mL/min. Stock solutions were prepared by dissolving 5 mg of compounds in a mobile phase ([(acetonitrile (80%): water (20%)], 10 mL). Anhydride 22h was not detected at its retention time of 5.2 min at pH 9.0. The data presented represent the results of single experiments.
The HPLC stability studies for compounds 21a, 21i, 22h, 23a, 23g, 23n, 24a, 24h, 26a and 26n were performed using a Symmetry® column (C18, 5 µm, 4.6 × 150 mm), a Waters 2487 Dual Wavelength Absorbance detector, and an HPLC pump: Waters 1525 binary and Autosampler; Waters 717 plus (Waters Corporation, Milford, MA, USA), mobile phase [(acetonitrile (80%) and water (20%)] with a typical run time of 10 min and a flow rate of 1 mL/min with detection at 254 nm. The selected compounds 21a, 21i, 22h, 23a, 23g, 23n, 24a, 24h, 26a and 26n (5 mg) in the mobile phase (10 mL) provided the stock solution for the analysis. The phosphate buffers were prepared at pH values of 4, 7.4 and 9, as described in the British Pharmacopoeia monograph 2019. The stock solution (30 µL) was added to the appropriate buffer (1 mL) and retained at 37 °C. Samples were then analyzed over the following 24-h period at selected time intervals (t = 0 min, 5 min, 30 min, 60 min, 90 min, 120 min and 24 h).

[5] = pH 4 buffer, read-out: % remaining 24 h pH 4
[6] = pH 4 buffer, read-out: Half-life pH 4 (converted)
[7] = pH 7.4 buffer, read-out: % remaining 24 h pH 7.4
[8] = pH 7.4 buffer, read-out: Half-life pH 7.4 (converted)
[9] = pH 9 buffer, read-out: % remaining 24 h pH 9
[10] = pH 9 buffer, read-out: Half-life pH 9 (converted)

Compound	IC50 [1]	IC50 [2]	viability at 10 µM [2]	IC50 [3]	viability at 10 µM [3]	further results
COc1c2ccccc2c(/C=C/[N+](=O)[O-])c2ccccc12 [Compound 18b, reference compound]	730 nM	–	–	–	–	–
O=C1C2C3c4ccccc4C(C=C[N+](=O)[O-])(c4ccccc43)C2C(=O)N1c1ccc(Cl)cc1 (centres unmarked) [Compound 20b]	760 nM	850 nM	8%	660 nM	3%	–
O=C(c1ccccc1)c1ccc(N2C(=O)C3C4c5ccccc5C(/C=C/[N+](=O)[O-])(c5ccccc54)C3C2=O)cc1 (centres unmarked) [Compound 20c]	800 nM	710 nM	11%	880 nM	4%	–
O=C1NC(=O)C2C1C1c3ccccc3C2(C=C[N+](=O)[O-])c2ccccc21 (centres unmarked) [Compound 20d]	770 nM	780 nM	14 to 43%	760 nM	17%	–
N#CC1CC2c3ccccc3C1(/C=C/[N+](=O)[O-])c1ccccc12 (centres unmarked) [Compound 20e]	1400 nM	1600 nM	14 to 43%	1100 nM	3%	–
O=C1C2C(C(=O)N1c1ccccc1)C1(/C=C/[N+](=O)[O-])c3ccccc3C2(Cl)c2ccccc21 (centres unmarked) [Compound 20g]	–	–	2%	–	1%	–
O=C1OC(=O)C2C1C1c3ccccc3C2(/C=C/[N+](=O)[O-])c2ccccc21 (centres unmarked) [Compound 20h]	–	–	31%	–	2%	–
O=C(/C=C/c1c2ccccc2cc2ccccc12)c1ccc(Br)cc1 [Compound 21a, (E)-3-(anthracen-9-yl)-1-(4-bromophenyl)prop-2-en-1-one]	–	–	–	–	–	recovery at 24 h [4]: < 50%; remaining at 24 h, 14.6 µg/mL [4, 5]: 46.3%; half-life at 14.6 µg/mL [4, 6]: 3.25 h; remaining at 24 h, 14.6 µg/mL [4, 7]: 38.6%; half-life at 14.6 µg/mL [4, 8]: 2 h; remaining at 24 h, 14.6 µg/mL [4, 9]: 38.6%; half-life at 14.6 µg/mL [4, 10]: 1.5 h
O=C(/C=C/c1c2ccccc2cc2ccccc12)c1ccc(Cl)cc1Cl [Compound 21d, (E)-3-(anthracen-9-yl)-1-(2,4-dichlorophenyl)prop-2-en-1-one]	–	–	37 to 54%	–	50%	viability at 1 µM [2]: 50 to 61%
COc1ccc(C(=O)/C=C/c2c3ccccc3cc3ccccc23)cc1OC [Compound 21e, (E)-3-(Anthracen-9-yl)-1-(3,4-dimethoxyphenyl)prop-2-en-1-one]	–	–	37 to 54%	–	–	viability at 1 µM [2]: 50 to 61%
O=C(/C=C/c1c2ccccc2cc2ccccc12)c1ccc(F)cc1 [Compound 21h, (E)-3-(anthracen-9-yl)-1-(4-fluorophenyl)prop-2-en-1-one]	–	–	–	–	70%	–
COc1ccc(C(=O)/C=C/c2c3ccccc3cc3ccccc23)cc1 [Compound 21i, (E)-3-(anthracen-9-yl)-1-(4-methoxyphenyl)prop-2-en-1-one]	–	–	–	–	49%	recovery at 24 h [4]: < 50%; remaining at 24 h, 14.6 µg/mL [4, 5]: 27.9%; half-life at 14.6 µg/mL [4, 6]: ~11.5 h; remaining at 24 h, 14.6 µg/mL [4, 7]: 26.6%; half-life at 14.6 µg/mL [4, 8]: 3.85 h; remaining at 24 h, 14.6 µg/mL [4, 9]: 42.1%; half-life at 14.6 µg/mL [4, 10]: ~11.5 h
O=C(/C=C/c1c2ccccc2cc2ccccc12)c1ccc(Cl)cc1 [Compound 21l, (E)-3-(anthracen-9-yl)-1-(4-chlorophenyl)prop-2-en-1-one]	–	–	–	–	70%	–
